ChEMBL document CHEMBL1201862, “PubChem BioAssay data set” (2004)
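Tested at 5 concentrations; 48 h exposure; 96-well plates; endpoints linearly interpolated, else capped at highest concentration. At the GI50, growth is halved.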 Activity calls are given as the source filed them. Cut-off read from the data, not from the text of the source: active = GI50 up to about 1.1 µM and inactive = higher.

How the values were obtained:
Assay in all cases: inhibition of tumour cell growth, NCI panel, 48 h
[1] = test system: 786-0
[2] = test system: A498
[3] = test system: A549
[4] = test system: ACHN
[5] = test system: BT-549
[6] = test system: CAKI-1
[7] = test system: CCRF-CEM
[8] = test system: COLO 205
[9] = test system: DU-145
[10] = test system: EKVX
[11] = test system: HCC 2998
[12] = test system: HCT-116
[13] = test system: HL-60
[14] = test system: HOP-62
[15] = test system: HOP-92
[16] = test system: Hs-578T
[17] = test system: IGROV-1
[18] = test system: K562
[19] = test system: KM12
[20] = test system: M14
[21] = test system: MDA-MB-231
[22] = test system: MDA-MB-435
[23] = test system: MDA-N
[24] = test system: MOLT-4
[25] = test system: Malme-3M
[26] = test system: NCI-H226
[27] = test system: NCI-H23
[28] = test system: NCI-H460
[29] = test system: OVCAR-3
[30] = test system: OVCAR-4
[31] = test system: OVCAR-5
[32] = test system: OVCAR-8
[33] = test system: PC-3
[34] = test system: RPMI-8226
[35] = test system: RXF 393
[36] = test system: SF-268
[37] = test system: SF-295
[38] = test system: SF-539
[39] = test system: SK-MEL-28
[40] = test system: SK-MEL-2
[41] = test system: SK-MEL-5
[42] = test system: SK-OV-3
[43] = test system: SN12C
[44] = test system: SNB-19
[45] = test system: SNB-75
[46] = test system: SR
[47] = test system: SW-620
[48] = test system: T47D
[49] = test system: U-251
[50] = test system: UACC-62
[51] = test system: UO-31

Measured: GI50

CCOC(=O)C(NC(=O)c1cccc(Cl)c1)(N1CCN(c2cc3c(cc2F)c(=O)c(C(=O)O)cn3C2CC2)CC1)C(F)(F)F (stereo unspecified)
inactive: [1] 14.6 µM | [2] 20 µM | [3] 15.2 µM | [4] 15.5 µM | [5] 18.9 µM | [6] 17.3 µM | [7] 2.67 µM | [8] 16.6 µM | [9] 25.4 µM | [10] 18.6 µM | [11] 19.4 µM | [12] 12.7 µM | [13] 2.67 µM | [14] 22.2 µM | [15] 16.3 µM | [16] 20.7 µM | [17] 16.1 µM | [18] 4.78 µM | [19] 11.5 µM | [20] 15.9 µM | [21] 15.6 µM | [22] 14.2 µM | [23] 15.2 µM | [24] 3.71 µM | [25] 18 µM | [26] 19.5 µM | [27] 15.4 µM | [28] 16.7 µM | [29] 10.7 µM | [30] 15.7 µM | [31] 16.7 µM | [32] 17.5 µM | [33] 13.7 µM | [34] 3.94 µM | [35] 17 µM | [36] 12.5 µM | [37] 21.6 µM | [38] 16.7 µM | [39] 16.5 µM | [40] 14.7 µM | [41] 12.9 µM | [42] 23.4 µM | [43] 26.9 µM | [44] 22.2 µM | [45] 20.2 µM | [46] 6.61 µM | [47] 12.2 µM | [48] 19.1 µM | [49] 5.24 µM | [50] 15.3 µM | [51] 20.1 µM
